Results reported in the NIST ThermoML archive (doi:10.1016/j.tca.2015.02.014).
± gives the expanded uncertainty stated by the source.

Test: mn = molality of the nth substance listed, in mol/kg
Settings: 100 kPa, Liquid; for viscosity: Capillary tube (Ostwald / Ubbelohde) method; for speed of sound: Frequency=3 MHz, Sing-around technique in a fixed-path interferometer; for mass density: Vibrating tube method

`C[C@H](CCC(=O)[O-])[C@H]1CC[C@H]2[C@@H]3CC[C@@H]4C[C@H](O)CC[C@]4(C)[C@H]3C[C@H](O)[C@]12C.[Na+]` [sodium deoxycholate] + O showed a viscosity (308.15 K, m1 = 0.001) of 0.7203 ± 0.021 mPa·s, a viscosity (308.15 K, m1 = 0.002) of 0.7215 ± 0.021 mPa·s and a viscosity (308.15 K, m1 = 0.003) of 0.7225 ± 0.021 mPa·s. The viscosity (308.15 K, m1 = 0.004) was 0.7254 ± 0.021 mPa·s, the viscosity (308.15 K, m1 = 0.005) was 0.7307 ± 0.021 mPa·s and the viscosity (308.15 K, m1 = 0.006) was 0.7433 ± 0.021 mPa·s. For the same compound, the viscosity (308.15 K, m1 = 0.007) was 0.752 ± 0.021 mPa·s, the viscosity (308.15 K, m1 = 0.009) was 0.7601 ± 0.021 mPa·s and the viscosity (308.15 K, m1 = 0.011) was 0.7644 ± 0.021 mPa·s. It also gave a viscosity (308.15 K, m1 = 0.013) of 0.7685 ± 0.021 mPa·s, a viscosity (308.15 K, m1 = 0.015) of 0.7762 ± 0.021 mPa·s and a viscosity (308.15 K, m1 = 0.017) of 0.7831 ± 0.021 mPa·s. It also gave a speed of sound (308.15 K, m1 = 0.001) of 1520.1 ± 1.3 m/s, a speed of sound (308.15 K, m1 = 0.002) of 1520.5 ± 1.3 m/s and a speed of sound (308.15 K, m1 = 0.003) of 1520.7 ± 1.3 m/s. The speed of sound (308.15 K, m1 = 0.004) was 1520.8 ± 1.3 m/s, the speed of sound (308.15 K, m1 = 0.005) was 1521 ± 1.3 m/s and the speed of sound (308.15 K, m1 = 0.006) was 1521.3 ± 1.3 m/s. The speed of sound (308.15 K, m1 = 0.007) was 1521.5 ± 1.3 m/s, the speed of sound (308.15 K, m1 = 0.009) was 1521.9 ± 1.3 m/s and the speed of sound (308.15 K, m1 = 0.011) was 1522.2 ± 1.3 m/s. For the same compound, the speed of sound (308.15 K, m1 = 0.013) was 1522.6 ± 1.3 m/s, the speed of sound (308.15 K, m1 = 0.015) was 1522.8 ± 1.3 m/s and the speed of sound (308.15 K, m1 = 0.017) was 1523.2 ± 1.3 m/s. It also gave a mass density (308.15 K, m1 = 0.001) of 994.255 ± 0.14 kg/m3, a mass density (308.15 K, m1 = 0.002) of 994.355 ± 0.13 kg/m3 and a mass density (308.15 K, m1 = 0.003) of 994.435 ± 0.13 kg/m3. For the same compound, the mass density (308.15 K, m1 = 0.004) was 994.509 ± 0.13 kg/m3, the mass density (308.15 K, m1 = 0.005) was 994.587 ± 0.13 kg/m3 and the mass density (308.15 K, m1 = 0.006) was 994.659 ± 0.13 kg/m3. It also gave a mass density (308.15 K, m1 = 0.007) of 994.739 ± 0.13 kg/m3, a mass density (308.15 K, m1 = 0.009) of 994.914 ± 0.13 kg/m3 and a mass density (308.15 K, m1 = 0.011) of 995.094 ± 0.13 kg/m3. The mass density (308.15 K, m1 = 0.013) was 995.282 ± 0.13 kg/m3, the mass density (308.15 K, m1 = 0.015) was 995.452 ± 0.13 kg/m3 and the mass density (308.15 K, m1 = 0.017) was 995.616 ± 0.13 kg/m3. For the same compound, the viscosity (313.15 K, m1 = 0.001) was 0.6543 ± 0.021 mPa·s, the viscosity (313.15 K, m1 = 0.002) was 0.6554 ± 0.021 mPa·s and the viscosity (313.15 K, m1 = 0.003) was 0.6565 ± 0.021 mPa·s. It also gave a viscosity (313.15 K, m1 = 0.004) of 0.6593 ± 0.021 mPa·s, a viscosity (313.15 K, m1 = 0.005) of 0.6645 ± 0.021 mPa·s and a viscosity (313.15 K, m1 = 0.006) of 0.677 ± 0.021 mPa·s. It also gave a viscosity (313.15 K, m1 = 0.007) of 0.6857 ± 0.021 mPa·s, a viscosity (313.15 K, m1 = 0.009) of 0.6936 ± 0.021 mPa·s and a viscosity (313.15 K, m1 = 0.011) of 0.6979 ± 0.021 mPa·s. It also gave a viscosity (313.15 K, m1 = 0.013) of 0.7019 ± 0.021 mPa·s, a viscosity (313.15 K, m1 = 0.015) of 0.7096 ± 0.021 mPa·s and a viscosity (313.15 K, m1 = 0.017) of 0.7164 ± 0.021 mPa·s. The speed of sound (313.15 K, m1 = 0.001) was 1529.3 ± 1.3 m/s, the speed of sound (313.15 K, m1 = 0.002) was 1529.5 ± 1.3 m/s and the speed of sound (313.15 K, m1 = 0.003) was 1529.7 ± 1.3 m/s. For the same compound, the speed of sound (313.15 K, m1 = 0.004) was 1529.8 ± 1.3 m/s, the speed of sound (313.15 K, m1 = 0.005) was 1530 ± 1.3 m/s and the speed of sound (313.15 K, m1 = 0.006) was 1530.3 ± 1.3 m/s. For the same compound, the speed of sound (313.15 K, m1 = 0.007) was 1530.5 ± 1.3 m/s, the speed of sound (313.15 K, m1 = 0.009) was 1530.9 ± 1.3 m/s and the speed of sound (313.15 K, m1 = 0.011) was 1531.2 ± 1.3 m/s. The speed of sound (313.15 K, m1 = 0.013) was 1531.5 ± 1.3 m/s, the speed of sound (313.15 K, m1 = 0.015) was 1531.8 ± 1.3 m/s and the speed of sound (313.15 K, m1 = 0.017) was 1532 ± 1.3 m/s. The mass density (313.15 K, m1 = 0.001) was 992.421 ± 0.14 kg/m3, the mass density (313.15 K, m1 = 0.002) was 992.515 ± 0.14 kg/m3 and the mass density (313.15 K, m1 = 0.003) was 992.6 ± 0.14 kg/m3. For the same compound, the mass density (313.15 K, m1 = 0.004) was 992.681 ± 0.14 kg/m3, the mass density (313.15 K, m1 = 0.005) was 992.757 ± 0.14 kg/m3 and the mass density (313.15 K, m1 = 0.006) was 992.817 ± 0.14 kg/m3. The mass density (313.15 K, m1 = 0.007) was 992.91 ± 0.14 kg/m3, the mass density (313.15 K, m1 = 0.009) was 993.064 ± 0.14 kg/m3 and the mass density (313.15 K, m1 = 0.011) was 993.239 ± 0.14 kg/m3. The mass density (313.15 K, m1 = 0.013) was 993.428 ± 0.14 kg/m3, the mass density (313.15 K, m1 = 0.015) was 993.595 ± 0.14 kg/m3 and the mass density (313.15 K, m1 = 0.017) was 993.737 ± 0.13 kg/m3. For the same compound, the viscosity (318.15 K, m1 = 0.001) was 0.5973 ± 0.021 mPa·s, the viscosity (318.15 K, m1 = 0.002) was 0.5984 ± 0.021 mPa·s and the viscosity (318.15 K, m1 = 0.003) was 0.5994 ± 0.021 mPa·s. For the same compound, the viscosity (318.15 K, m1 = 0.004) was 0.6022 ± 0.021 mPa·s, the viscosity (318.15 K, m1 = 0.005) was 0.6074 ± 0.021 mPa·s and the viscosity (318.15 K, m1 = 0.006) was 0.6197 ± 0.021 mPa·s. For the same compound, the viscosity (318.15 K, m1 = 0.007) was 0.6283 ± 0.021 mPa·s, the viscosity (318.15 K, m1 = 0.009) was 0.6361 ± 0.022 mPa·s and the viscosity (318.15 K, m1 = 0.011) was 0.6403 ± 0.021 mPa·s. It also gave a viscosity (318.15 K, m1 = 0.013) of 0.6443 ± 0.021 mPa·s, a viscosity (318.15 K, m1 = 0.015) of 0.6518 ± 0.021 mPa·s and a viscosity (318.15 K, m1 = 0.017) of 0.6586 ± 0.021 mPa·s. The speed of sound (318.15 K, m1 = 0.001) was 1536.9 ± 1.3 m/s, the speed of sound (318.15 K, m1 = 0.002) was 1537.1 ± 1.3 m/s and the speed of sound (318.15 K, m1 = 0.003) was 1537.3 ± 1.3 m/s. For the same compound, the speed of sound (318.15 K, m1 = 0.004) was 1537.3 ± 1.3 m/s, the speed of sound (318.15 K, m1 = 0.005) was 1537.5 ± 1.3 m/s and the speed of sound (318.15 K, m1 = 0.006) was 1537.7 ± 1.3 m/s. For the same compound, the speed of sound (318.15 K, m1 = 0.007) was 1537.9 ± 1.3 m/s, the speed of sound (318.15 K, m1 = 0.009) was 1538.3 ± 1.3 m/s and the speed of sound (318.15 K, m1 = 0.011) was 1538.6 ± 1.3 m/s. It also gave a speed of sound (318.15 K, m1 = 0.013) of 1538.9 ± 1.3 m/s, a speed of sound (318.15 K, m1 = 0.015) of 1539.2 ± 1.3 m/s and a speed of sound (318.15 K, m1 = 0.017) of 1539.5 ± 1.3 m/s. It also gave a mass density (318.15 K, m1 = 0.001) of 990.405 ± 0.14 kg/m3, a mass density (318.15 K, m1 = 0.002) of 990.499 ± 0.14 kg/m3 and a mass density (318.15 K, m1 = 0.003) of 990.576 ± 0.14 kg/m3. The mass density (318.15 K, m1 = 0.004) was 990.651 ± 0.14 kg/m3, the mass density (318.15 K, m1 = 0.005) was 990.732 ± 0.14 kg/m3 and the mass density (318.15 K, m1 = 0.006) was 990.802 ± 0.14 kg/m3. For the same compound, the mass density (318.15 K, m1 = 0.007) was 990.892 ± 0.14 kg/m3, the mass density (318.15 K, m1 = 0.009) was 991.03 ± 0.14 kg/m3 and the mass density (318.15 K, m1 = 0.011) was 991.199 ± 0.14 kg/m3. For the same compound, the mass density (318.15 K, m1 = 0.013) was 991.379 ± 0.14 kg/m3, the mass density (318.15 K, m1 = 0.015) was 991.535 ± 0.14 kg/m3 and the mass density (318.15 K, m1 = 0.017) was 991.705 ± 0.14 kg/m3.
